For one data set, the system named is DENV-2 strain 16681. Kind of data set: Tetravalent RT-qPCR assay Protocol A, serotype 2. The data set is classed as cell-based. The following applies: Dengue virus. The method, then:
(§1) The antiviral activity of the compounds of the invention was tested against DENV-1 strain TC974#666 (NCPV), DENV-2 strain 16681, DENV-3 strain H87 (NCPV) and DENV-4 strain H241 (NCPV) in a RT-qPCR assay. Therefore, Vero cells were infected with either DENV-1, or -2, or -3, or -4 in the presence or absence of test compounds. At day 3 post-infection, the cells were lysed and cell lysates were used to prepare cDNA of both a viral target (the 3′UTR of DENV; Table 2) and a cellular reference gene (β-actin, Table 2). Subsequently, a duplex real time PCR was performed on a Lightcycler480 instrument. The generated Cp value is inversely proportional to the amount of RNA expression of these targets. Inhibition of DENV replication by a test compound results in a shift of Cp's for the 3′UTR gene. On the other hand, if a test compound is toxic to the cells, a similar effect on β-actin expression will be observed. The comparative ΔΔCp method is used to calculate EC50, which is based on the relative gene expression of the target gene (3′UTR) normalized with the cellular housekeeping gene (β-actin). In addition, CC50 values are determined based on the Cp values acquired for the housekeeping gene β-actin.
(§2) The culture medium consisted of minimal essential medium supplemented with 2% of heat-inactivated fetal calf serum, 0.04% gentamycin (50 mg/mL) and 2 mM of L-glutamine. Vero cells, obtained from ECACC, were suspended in culture medium and 75 μL/well was added in 96-well plates (10000 cells/well), which already contain the antiviral compounds. […] In addition, each plate contains wells which are assigned as virus controls (containing cells and virus in the absence of compound) and cell controls (containing cells in the absence of virus and compound). Once the cells were added in the plates, the plates were incubated in a fully humidified incubator (37° C., 5% CO2) until the next day. Dengue viruses serotype-1, 2, 3 and 4 were diluted in order to obtain a Cp of ˜22-24 in the assay. Therefore, 25 μL of virus suspension was added to all the wells containing test compound and to the wells assigned as virus control. In parallel, 25 μL of culture medium was added to the cell controls. Next, the plates were incubated for 3 days in a fully humidified incubator (37° C., 5% CO2). After 3 days, the supernatant was removed from the wells and the cells were washed twice with ice-cold PBS (˜100 μL). The cell pellets within the 96-well plates were stored at −80° C. for at least 1 day. Next, RNA was extracted using the Cells-to-CT™ lysis kit, according to the manufacturer's guideline (Life Technologies). The cell lysates can be stored at −80° C. or immediately used in the reverse transcription step.
(§3) In preparation of the reverse transcription step, mix A (table 3A) was prepared and 7.57 μL/well was dispensed in a 96-well plate. After addition of 5 μL of the cell lysates, a five minute denaturation step at 75° C. was performed (table 3B). Afterwards, 7.43 μL of mix B was added (table 3C) and the reverse transcription step was initiated (table 3D) to generate cDNA.
(§4) Finally, a RT-qPCR mix was prepared, mix C (table 4A), and 22.02 μL/well was dispensed in 96-well LightCycler qPCR plates to which 3 μL of cDNA was added and the qPCR was performed according to the conditions in table 4B on a LightCycler 480.
(§5) Using the LightCycler software and an in-house LIMS system, dose response curves for each compound were calculated and the half maximal effective concentration (EC50) and the half maximal cytotoxic concentration (CC50) were determined (Tables 5-8).
On the technique in general: Real-time PCR tracks product formation cycle by cycle.

The next data set deals with DENV-2 16681 strain. Kind of data set: DENV-2 antiviral assay (eGFP fluorescence, Vero cells). In kind it is cell-based, Dengue virus. The following applies: DENV-2 16681 eGFP, MOI 0.5, 3 days. The method, then:
The antiviral activity of all the compounds of the invention was tested against the DENV-2 16681 strain which was labeled with enhanced green fluorescent protein (eGPF). The culture medium consists of minimal essential medium supplemented with 2% of heat-inactivated fetal calf serum, 0.04% gentamycin (50 mg/mL) and 2 mM of L-glutamine. Vero cells, obtained from ECACC, were suspended in culture medium and 25 μL was added to 384-well plates (2500 cells/well), which already contain the antiviral compounds. Typically, these plates contain a 5-fold serial dilution of 9 dilution steps of the test compound at 200 times the final concentration in 100% DMSO (200 nL). […] Finally, each plate contains wells which are assigned as virus controls (containing cells and virus in the absence of compound), cell controls (containing cells in the absence of virus and compound) and medium controls (containing medium in the absence of cells, virus and compounds). To the wells assigned as medium control, 25 μL of culture medium was added instead of Vero cells. Once the cells were added to the plates, the plates were incubated for 30 minutes at room temperature to allow the cells to distribute evenly within the wells. Next, the plates were incubated in a fully humidified incubator (37° C., 5% CO2) until the next day. Then, DENV-2 strain 16681, labeled with eGFP, was added at a multiplicity of infection (MOI) of 0.5. Therefore, 15 μL of virus suspension was added to all the wells containing test compound and to the wells assigned as virus control. In parallel, 15 μL of culture medium was added to the medium and cell controls. Next, the plates were incubated for 3 days in a fully humidified incubator (37° C., 5% CO2). At the day of the read out, the eGFP fluorescence was measured using an automated fluorescence microscope at 488 nm (blue laser). Using an in-house LIMS system, inhibition dose response curves for each compound were calculated and the half maximal effective concentration (EC50) was determined. Therefore, the percent inhibition (I) for every test concentration is calculated using the following formula: I=100*(ST-SCC)/(SVC-SCC), ST, SCC and SVC are the amount of eGFP signal in the test compound, cell control and virus control wells, respectively. The EC50 represents the concentration of a compound at which the virus replication is inhibited with 50%, as measured by a 50% reduction of the eGFP fluorescent intensity compared to the virus control. The EC50 is calculated using linear interpolation (Table 1).

Data set [1] is described as follows: in vitro. The following applies: African green monkey. The data set is classed as cell-based. As for the experimental part:
as §1, §2, §3, §4, §5

The next data set deals with DENV-1 strain TC974#666. Kind of data set: Tetravalent RT-qPCR assay Protocol A, serotype 1. In kind it is cell-based. Conditions: Dengue virus, DENV1, 72 h; RT-qPCR serotype 1 TC974#666, Vero cells, day 3. The method, then:
as §1, §2, §3, §4, §5

The subject of another data set is DENV-4 strain H241. Kind of data set: Tetravalent RT-qPCR assay Protocol A, serotype 4. In kind it is cell-based. Conditions: Dengue virus, DENV4, 72 h; RT-qPCR serotype 4 H241, Vero cells, day 3. As for the experimental part: as §1, §2, §3, §4, §5
In another data set the test system is Vero cells. Conditions: African green monkey.
Another data set relates to DENV-3 strain H87. The data set is described as follows: Tetravalent RT-qPCR assay Protocol A, serotype 3. In kind it is cell-based. The following applies: Dengue virus, DENV3, 72 h; RT-qPCR serotype 3 H87, Vero cells, day 3. As for the experimental part: as §1, §2, §3, §4, §5
The nature of data set [2]: in vitro. Conditions: African green monkey.
Setting [3] is: DENV2, 72 h, RT-qPCR serotype 2 16681, Vero cells, day 3, read-out: EC50.

These results are taken from patent US11083707B2, “Substituted indoline derivatives as dengue viral replication inhibitors” (JANSSEN PHARMACEUTICALS, INC., priority 2017, dated 2021).

Read-outs that look alike come from different tables or passages of the source. Bounds are passed on as bounds.

With `COc1cc(NC(C(=O)N2CCc3ccc(OC(F)(F)F)cc32)c2ccc(Cl)cc2OCCC(C)(C)C(=O)O)cc(-n2cncn2)c1` (single isomer, unassigned) [Compound 14B], the EC50 (usually the concentration at which the effect is half-maximal) with DENV-2 strain 16681 (DENV2, Vero, 72 h) was 0.16 nM; in the data set on DENV-2 16681 strain, 0.27 nM; in the data set with DENV-1 strain TC974#666, 0.22 nM; in the data set on DENV-4 strain H241 it was 23 nM; with DENV-3 strain H87, 5.5 nM. In the data set “in vitro [1]”, this compound showed a CC50 at 3 days of 2300 nM. For the same compound, the CC50 with Vero cells amounted to 9400 nM.

In the case of `COc1cc(NC(C(=O)N2CCc3c(C)cc(OC(F)(F)F)cc32)c2ccc(Cl)cc2OCCCC(=O)O)cc(-n2cncn2)c1` (racemic) [Compound 16, 4-(5-chloro-2-(1-((3-methoxy-5-(1H-1,2,4-triazol-1-yl)phenyl)amino)-2-(4-methyl-6-(trifluoromethoxy)indolin-1-yl)-2-oxoethyl)phenoxy)butanoic acid], the melting point – broadly, the temperature of the solid-liquid transition – came to 214 °C. This compound showed a half-maximal effective concentration (EC50) with DENV-2 16681 strain (Dengue virus, DENV2, Vero, 72 h) of 0.11 nM. The compound also showed a CC50 in “in vitro [2]” of 11000 nM.

In the case of `COc1cc(NC(C(=O)N2CCc3ccc(C(F)(F)F)cc32)c2ccc(Cl)cc2OCCO)cc(-n2cncn2)c1` (single isomer, unassigned) [Compound 4B], the EC50 came out at 0.45 nM with DENV-2 strain 16681 (setting [3]); 1 nM in the data set on DENV-2 16681 strain; 0.57 nM with DENV-1 strain TC974#666; 76 nM with DENV-4 strain H241; 11 nM in the data set with DENV-3 strain H87. The compound further displayed a CC50 at 3 days in “in vitro [1]” of over 2500 nM. Moreover, the CC50 in the data set with Vero cells amounted to 11000 nM.

`COc1cc(NC(C(=O)N2CCc3cc(OC)c(C(F)(F)F)cc32)c2ccc(F)cc2OCCO)cc(-n2cncn2)c1` (single isomer, unassigned) [Compound 2B]: the EC50 came to 2.1 nM with DENV-2 strain 16681 (setting [3]); 1.8 nM with DENV-2 16681 strain; 6 nM with DENV-1 strain TC974#666; 150 nM in the data set with DENV-4 strain H241; 38 nM with DENV-3 strain H87. Besides, the CC50 at 3 days in “in vitro [1]” was over 2500 nM. For the same compound, the CC50 with Vero cells is 10000 nM.

`COc1cc(NC(C(=O)N2CCc3ccc(C(F)(F)F)cc32)c2ccc(Cl)cc2OCCCC(=O)O)cc(-n2cncn2)c1` (single isomer, unassigned) [Compound 11B]: the EC50 in the data set on DENV-2 strain 16681 (setting [3]) was found to be 0.059 nM; in the data set with DENV-2 16681 strain it was 0.2 nM; in the data set on DENV-1 strain TC974#666, 0.095 nM; in the data set on DENV-4 strain H241 it was 20 nM; in the data set on DENV-3 strain H87 it was 6.5 nM. Moreover, the CC50 at 3 days in “in vitro [1]” was over 2500 nM. In the data set with Vero cells, the CC50 is 12000 nM.

With `COc1cc(NC(C(=O)N2CCc3ccc(C(F)(F)F)cc32)c2ccc(F)cc2OCCO)cc(-n2cncn2)c1` (single isomer, unassigned) [Compound 1B], the EC50 is 2.4 nM with DENV-2 strain 16681 (setting [3]); 2.8 nM in the data set with DENV-2 16681 strain; 1.5 nM in the data set with DENV-1 strain TC974#666; 180 nM with DENV-4 strain H241; 25 nM in the data set with DENV-3 strain H87. The compound also showed a CC50 at 3 days in “in vitro [1]” of over 2500 nM. The CC50 in the data set on Vero cells was determined as 9800 nM.

Turning to `COc1cc(NC(C(=O)N2CCc3c(C)cc(OC(F)(F)F)cc32)c2ccc(Cl)cc2OCCCC(=O)O)cc(-n2cncn2)c1` (single isomer, unassigned) [Compound 16B], the EC50 in the data set with DENV-2 strain 16681 (setting [3]) was found to be 0.055 nM; in the data set with DENV-2 16681 strain, 0.069 nM; in the data set on DENV-1 strain TC974#666 it was 0.092 nM; in the data set with DENV-4 strain H241, 5.3 nM; with DENV-3 strain H87, 0.87 nM. The CC50 at 3 days in the data set “in vitro [1]” was over 1000 nM. In the data set on Vero cells, this compound returned a CC50 of 6200 nM.

As to `COc1cc(NC(C(=O)N2CCc3cc(OC)c(C(F)(F)F)cc32)c2ccc(Cl)cc2OCCO)cc(-n2cncn2)c1` (single isomer, unassigned) [Compound 5B], the EC50 in the data set on DENV-2 strain 16681 (setting [3]) amounted to 0.52 nM; with DENV-2 16681 strain it was 0.62 nM; with DENV-1 strain TC974#666 it was 2 nM; with DENV-4 strain H241 it was 90 nM; in the data set with DENV-3 strain H87, 15 nM. This compound also showed a CC50 at 3 days in “in vitro [1]” of over 2500 nM. Moreover, the CC50 with Vero cells amounted to 9200 nM.
